How the values were obtained:
panelists = assay: Warming sensation in lotion, panel evaluation (Example 20); format: in vivo, human; settings: for Overall warming intensity (1 = no effect, 5 = extremely warming): 0.5% loading in in-house lotion base, 5 panelists, control 1.25
Excerpt: All materials were made with 0.5% loading of active compound in an in-house lotion base except the control, which contains no active material. There were a total of 5 panelists to evaluate the lotion samples.

mouth = assay: Perceived warming sensations in the mouth, "swish and spit" protocol (Example 15); format: in vivo, human; settings: 1% by weight in ethanol, diluted at 10 ppm in water, one comment per participant (5 expert evaluators)
Method: A warming composition was prepared by adding 1% by weight of the warming agent of Example 1 to ethanol. The resulting warming composition was diluted at 10 ppm in water. The diluted warming composition was evaluated for its perceived warming sensations in the mouth by 5 expert evaluators following a “swish and spit” protocol, in which the sample is placed into a small tasting cup, taken into the mouth, and swished around, then the sample is spit back into the original tasting cup and disposed of. Additional compounds were evaluated and compared for perceived warming sensations in the mouth by expert evaluators following the “swish and spit” protocol.

expert panelists = assay: Warming evaluation in milk chocolate by expert panelists (Example 17); format: in vivo, human; settings: 5% cut in MCT at 0.3% in milk chocolate; for Average Warming Intensity (1-9): 1=none, 9=very strong, control without warming compound 1.7; for Onset: panelists chose slow, medium or fast

Structure (SMILES) | Heat sensation when working out (sweating) after application (panelists; 0.5% in lotion base, noticed by an evaluator) | Overall warming intensity (1 = no effect, 5 = extremely warming) (panelists) | Comments (perceived warming sensations in the mouth) (mouth) | melting point [°C] | Average Warming Intensity (1-9) (expert panelists; 10 expert panelists) | Character/Comments (expert panelists; 10 expert panelists, listed as compound C) | Onset (expert panelists)
COc1cc(CC(=O)OCCOc2ccccc2)ccc1O [Example 1, 2-Phenoxyethyl 2-(4-hydroxy-3-methoxyphenyl)acetate] | the heat sensation came back at the same intensity as first described at initial application | 2.90 | Immediate burn, intense but fades really quickly | 56 | 6.8 | pleasant linger, without an irritating burn | Fast (“fast onset” relates to the onset of warming sensation in less than about 10 seconds (i.e., quick))
COc1ccc(CC(C)COC(=O)Cc2ccc(O)c(OC)c2)cc1 (stereo not shown) [Example 5, 3-(4-methoxyphenyl)-2-methylpropyl 2-(4-hydroxy-3-methoxyphenyl)acetate] | – | 1.80 | – | – | 2.25 | – | Slow (“slow onset” relates to the onset of warming sensation occurring after about 15 seconds (i.e., delayed))
COc1cc(CC(=O)OC/C=C(\C)CCC=C(C)C)ccc1O [Example 13, (E)-3,7-Dimethylocta-2,6-dien-1-yl 2-(4-hydroxy-3-methoxyphenyl)acetate] | – | 2.70 | – | – | 2.7 | – | Slow (“slow onset” relates to the onset of warming sensation occurring after about 15 seconds (i.e., delayed))

— patent publication US11059771B2, “Warming sensation compounds” (TAKASAGO INTERNATIONAL CORPORATION, priority 2016, dated 2021)
